Literature values as cited in patent US7449451B2, “Use of multiple antioxidant micronutrients as systemic biological radioprotective agents against potential ionizing radiation risks” (priority 2002, dated 2008).

Assays:
[1] = test system: mammalian cells in culture
mitotic cells = mitotic cells treated with cysteamine
[2] = in vivo

CC(=O)N[C@@H](CS)C(=O)O [N-acetylcysteine]
intracellular levels of glutathione (glutathione): actively increase the intracellular levels of glutathione without causing any toxicity
tolerability in humans (human beings): tolerated by humans very well

CC1=C(/C=C/C(C)=C/C=C/C(C)=C/C=C/C=C(C)/C=C/C=C(C)/C=C/C2=C(C)CCCC2(C)C)C(C)(C)CCC1 [natural beta-carotene, beta-carotene]
radioprotectant value (animals and humans): marked radioprotectant value
reduction of radiation-induced transformation [1]: most effectively reduces radiation-induced transformation

Cc1c(C)c2c(c(C)c1OC(=O)CCC(=O)O)CC[C@@](C)(CCC[C@H](C)CCC[C@H](C)CCCC(C)C)O2 [d-alpha tocopheryl succinate]
radioprotectant value (animals and humans): marked radioprotectant value
reduction of radiation-induced transformation [1]: actively reduces the incidence of radiation-induced transformation

O=C(O)CCCCC1CCSS1 (stereo not drawn) [alpha lipoic acid]
intracellular levels of glutathione (glutathione): actively increase the intracellular levels of glutathione without causing any toxicity
tolerability in humans (human beings): tolerated by humans very well

calcium ascorbate [vitamin C]
radioprotectant value (animals and humans): marked radioprotectant value

vitamin E
protection against lethal doses of cobalt-60 (mice): good protection

NCCS [cysteamine]
resistance of mitotic cells to radiation (mitotic cells): became very resistant to radiation
protection against bone marrow and gastrointestinal radiation syndromes (animals): protects animals against bone marrow (2, 31) and gastrointestinal (32) radiation syndromes
toxicity when administered to human beings (human beings; humans): extremely toxic

N[C@@H](CCC(=O)N[C@@H](CS)C(=O)NCC(=O)O)C(=O)O [Glutathione, glutathione]
hydrolysis in the intestine when ingested [2]: completely hydrolyzed in the intestine
